From US20200223889A1, “Bicyclic Compounds Capable of Binding to Melanocortin 4 Receptor” (Novo Nordisk A/S, priority 2017, published 2020)
Where two headings read alike, the source gives them in different places. Starred links: 1 amine or outer side, 2 acyl side, 3 side chain; linkers in the order of their positions; H or OH if unused. Positions of bridges follow the written chain, without caps; N, C: chain ends. Non-standard residues stand in square brackets, D forms with d. Residues, ends and D or L forms follow the SMILES beside them. Hyp = O=C(O)[C@@H]1C[C@@H](O)CN1; Cit = NC(=O)NCCC[C@H](N)C(=O)O; d(hCys) = N[C@H](CCS)C(=O)O; Api = NC1(C(=O)O)CCNCC1; X1 = C(CN[*:2])CS[*:1]; Aib = CC(C)(N)C(=O)O; Sar = CNCC(=O)O

Molecular target: T1, human MC4R (Homo sapiens, UniProt P32245)
T1 construct: expressed in transfected cells
T1 sequence (P32245 whole entry): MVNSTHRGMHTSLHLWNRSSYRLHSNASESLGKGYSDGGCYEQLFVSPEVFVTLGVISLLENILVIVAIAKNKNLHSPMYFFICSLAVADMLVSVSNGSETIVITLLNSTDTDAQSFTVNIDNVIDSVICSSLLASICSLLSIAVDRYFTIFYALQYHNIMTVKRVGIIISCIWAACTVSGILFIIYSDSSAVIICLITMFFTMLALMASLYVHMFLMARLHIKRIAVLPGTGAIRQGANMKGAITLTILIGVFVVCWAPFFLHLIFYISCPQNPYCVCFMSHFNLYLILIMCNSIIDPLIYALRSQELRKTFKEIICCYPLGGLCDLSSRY
Assay: Functional cAMP assay (CisBio HTRF) in BHK cells expressing human MC4R
Type: cell-based
Settings: for MC1R/MC4R cAMP EC50 ratio: MC1R cAMP EC50 divided by MC4R cAMP EC50
Description: In order to assess the potency of the compounds on human MC1R and human MC4R cAMP signalling was measured.
cAMP induction was measured by c-AMPdynamic2 assay, HTRF 62AM4PEC system from CisBio for the human MC1R and human MC4R according to the protocol provided by the vendor. BHK cells expressing the human MC1 or MC4 receptor were generated by stable transfection with expression vectors encoding the cDNA of either MC1R or MC4R.
In details; 25 μl compound—or standard solution were added in the respective wells. Compound was reconstituted in buffer (DMEM w/o phenol red, 10 mM
Hepes, lx Glutamine, 0.1% OV-albumin1, 1 mM IBMX) and serially diluted starting at 2 μM, 10-fold seven times. Dilutions were carried out in the same aforementioned buffer to the desired working concentration ranges (2× higher than the final concentration). 25 μl cell solution was then added and allowed to incubate for 30 min while lightly shaking, at 25° C. […] The provided components for the assay were reconstituted according to the CisBio assay protocol “3.1 supplied reagents and preparation procedure” in MilliQ purification system H2O and diluted 1:20 in lysis buffer. 25 μl cAMP-d2 and 25 μl Cryptate conjugate were added to all wells.
Plates were centrifuged at 1500 rpm for 30 sec and incubated for 1 h, lightly shaking, at 25° C. in a hotel stacker. The plates were read on Mithras LB 940 provided by Berthold Technologies The data were analysed by non-linear regression analysis of binding curves, using the Windows™ program GraphPad™ Prism (GraphPad Software, USA).
The latter is used when no full curve can be obtained in the concentration ranges indicated above.

[1] = BHK cells expressing human MC4R, '>' = highest dose used with no response, read-out: MC4R cAMP EC50

Compound | MC1R/MC4R cAMP EC50 ratio | EC50 [1] | EC50
N=C(N)NCCC[C@@H]1NC(=O)[C@@H](Cc2ccccc2)NC(=O)[C@H](Cc2c[nH]cn2)NC(=O)[C@@H]2CSSC[C@H](NC(=O)[C@H](CCC(=O)O)NC(=O)[C@H](Cc3c[nH]c4ccccc34)NC1=O)C(=O)N[C@@H](Cc1c[nH]cn1)C(=O)N[C@H](Cc1ccccc1)C(=O)N[C@@H](CCCNC(=N)N)C(=O)N[C@@H](Cc1c[nH]c3ccccc13)C(=O)N[C@@H](CCC(=O)O)C(=O)N2 [Chem. 1, c[c[Cys-His-D-Phe-Arg-Trp-Glu-Cys]- His-D-Phe-Arg-Trp-Glu]] (cyclo(CH[dF]RWECH[dF]RWE); disulfide 1-7) | 13 |  | 
CC(=O)N[C@@H](Cc1c[nH]cn1)C(=O)N[C@H](Cc1ccccc1)C(=O)N[C@@H](CCCNC(=N)N)C(=O)N[C@@H](Cc1c[nH]c2ccccc12)C(=O)NCC(=O)N[C@@H]1CCSSCCCNC(=O)CNC(=O)[C@H](Cc2c[nH]c3ccccc23)NC(=O)[C@H](CCCNC(=N)N)NC(=O)[C@@H](Cc2ccccc2)NC(=O)[C@H](Cc2c[nH]cn2)NC1=O [Chem. 4, c[c[Cys-His-D-Phe-Arg-Trp-Gly-Cys]- His-D-Phe-Arg-Trp-Gly]] (Ac-H[dF]RWG[d(hCys)]H[dF]RWG; linker 6-C via X1) | 7 | 0.09 nM | 
CC(=O)N[C@@H](Cc1c[nH]cn1)C(=O)N[C@H](Cc1ccccc1)C(=O)N[C@@H](CCCNC(=N)N)C(=O)N[C@@H](Cc1c[nH]c2ccccc12)C(=O)N[C@@H](C)C(=O)N[C@@H]1CCSSCCCNC(=O)[C@H](C)NC(=O)[C@H](Cc2c[nH]c3ccccc23)NC(=O)[C@H](CCCNC(=N)N)NC(=O)[C@@H](Cc2ccccc2)NC(=O)[C@H](Cc2c[nH]cn2)NC1=O [Chem. 5, c[c[Cys-His-D-Phe-Arg-Trp-Ala-Cys]- His-D-Phe-Arg-Trp-Ala]] (Ac-H[dF]RWA[d(hCys)]H[dF]RWA; linker 6-C via X1) | 31 | 0.21 nM | 
CC1(C)NC(=O)[C@@H]2CSSC[C@H](NC(=O)[C@H](Cc3c[nH]c4ccccc34)NC(=O)[C@H](CCCNC(=N)N)NC(=O)[C@@H](Cc3ccccc3)NC(=O)[C@H](Cc3c[nH]cn3)NC1=O)C(=O)NC(C)(C)C(=O)N[C@@H](Cc1c[nH]cn1)C(=O)N[C@H](Cc1ccccc1)C(=O)N[C@@H](CCCNC(=N)N)C(=O)N[C@@H](Cc1c[nH]c3ccccc13)C(=O)N2 [Chem. 9, c[c[Cys-Aib-His-D-Phe-Arg-Trp-Cys]- Aib-His-D-Phe-Arg-Trp]] (cyclo([Aib]H[dF]RWC[Aib]H[dF]RWC); disulfide 6-12) | 201 |  | 
C[C@@H]1NC(=O)[C@@H]2CSSC[C@H](NC(=O)[C@H](Cc3c[nH]c4ccccc34)NC(=O)[C@H](CCN)NC(=O)[C@@H](Cc3ccccc3)NC(=O)[C@H](Cc3c[nH]cn3)NC1=O)C(=O)N[C@@H](C)C(=O)N[C@@H](Cc1c[nH]cn1)C(=O)N[C@H](Cc1ccccc1)C(=O)N[C@@H](CCN)C(=O)N[C@@H](Cc1c[nH]c3ccccc13)C(=O)N2 [Chem. 17, c[c[Cys-Ala-His-D-Phe-Dab-Trp-Cys]- Ala-His-D-Phe-Dab-Trp]] | 288 |  | 
C[C@@H]1NC(=O)[C@@H]2CSSC[C@H](NC(=O)[C@H](Cc3c[nH]c4ccccc34)NC(=O)[C@H](Cc3c[nH]cn3)NC(=O)[C@@H](Cc3ccccc3)NC(=O)[C@H](Cc3c[nH]cn3)NC1=O)C(=O)N[C@@H](C)C(=O)N[C@@H](Cc1c[nH]cn1)C(=O)N[C@H](Cc1ccccc1)C(=O)N[C@@H](Cc1c[nH]cn1)C(=O)N[C@@H](Cc1c[nH]c3ccccc13)C(=O)N2 [Chem. 24, c[c[Cys-Ala-His-D-Phe-His-Trp-Cys]- Ala-His-D-Phe-His-Trp]] (cyclo(AH[dF]HWCAH[dF]HWC); disulfide 6-12) | 364 | 0.49 nM | 
CN1CC(=O)N[C@@H](Cc2c[nH]cn2)C(=O)N[C@H](Cc2ccccc2)C(=O)N[C@@H](CCCNC(=N)N)C(=O)N[C@@H](Cc2c[nH]c3ccccc23)C(=O)N[C@H]2CSSC[C@H](NC(=O)[C@H](Cc3c[nH]c4ccccc34)NC(=O)[C@H](CCCNC(=N)N)NC(=O)[C@@H](Cc3ccccc3)NC(=O)[C@H](Cc3c[nH]cn3)NC(=O)CN(C)C2=O)C1=O [Chem. 31, c[c[Cys-Sar-His-D-Phe-Arg-Trp-Cys]- Sar-His-D-Phe-Arg-Trp]] (cyclo(C[Sar]H[dF]RWC[Sar]H[dF]RW); disulfide 1-7) | 27 | 0.29 nM | 
N=C(N)NCCC[C@@H]1NC(=O)[C@@H](Cc2ccccc2)NC(=O)[C@H](Cc2c[nH]cn2)NC(=O)[C@@H]2C[C@@H](O)CN2C(=O)[C@@H]2CSSC[C@H](NC(=O)[C@H](Cc3c[nH]c4ccccc34)NC1=O)C(=O)N1C[C@H](O)C[C@H]1C(=O)N[C@@H](Cc1c[nH]cn1)C(=O)N[C@H](Cc1ccccc1)C(=O)N[C@@H](CCCNC(=N)N)C(=O)N[C@@H](Cc1c[nH]c3ccccc13)C(=O)N2 [Chem. 32, c[c[Cys-Hyp-His-D-Phe-Arg-Trp- Cys]-Hyp-His-D-Phe-Arg-Trp]] (cyclo(C[Hyp]H[dF]RWC[Hyp]H[dF]RW); disulfide 1-7) | 17 |  | 0.12 nM
C[C@@H]1NC(=O)[C@@H]2CSSC[C@H](NC(=O)[C@H](Cc3c[nH]c4ccccc34)NC(=O)[C@H](CCCNC(=N)N)N(C)C(=O)[C@@H](Cc3ccccc3)NC(=O)[C@H](Cc3c[nH]cn3)NC1=O)C(=O)N[C@@H](C)C(=O)N[C@@H](Cc1c[nH]cn1)C(=O)N[C@H](Cc1ccccc1)C(=O)N(C)[C@@H](CCCNC(=N)N)C(=O)N[C@@H](Cc1c[nH]c3ccccc13)C(=O)N2 [Chem. 37, c[c[Cys-Ala-His-D-Phe-N-MeArg-Trp- Cys]-Ala-His-D-Phe-N-MeArg-Trp]] | 8 |  | 
CC1(C)NC(=O)[C@@H]2CSSC[C@H](NC(=O)[C@H](Cc3c[nH]c4ccccc34)NC(=O)[C@H](CCCNC(=N)N)NC(=O)[C@@H](Cc3ccccc3)NC(=O)[C@@H]3CCCN3C1=O)C(=O)NC(C)(C)C(=O)N1CCC[C@H]1C(=O)N[C@H](Cc1ccccc1)C(=O)N[C@@H](CCCNC(=N)N)C(=O)N[C@@H](Cc1c[nH]c3ccccc13)C(=O)N2 [Chem. 39, c[c[Cys-Aib-Pro-D-Phe-Arg-Trp-Cys]- Aib-Pro-D-Phe-Arg-Trp]] (cyclo([Aib]P[dF]RWC[Aib]P[dF]RWC); disulfide 6-12) | 37 |  | 
O=C1N[C@H]2CSSC[C@H](NC(=O)[C@H](Cc3c[nH]c4ccccc34)NC(=O)[C@H](Cc3c[nH]cn3)NC(=O)[C@@H](Cc3ccccc3)NC(=O)[C@H](Cc3c[nH]cn3)NC(=O)C3(CCNCC3)NC2=O)C(=O)NC2(CCNCC2)C(=O)N[C@@H](Cc2c[nH]cn2)C(=O)N[C@H](Cc2ccccc2)C(=O)N[C@@H](Cc2c[nH]cn2)C(=O)N[C@H]1Cc1c[nH]c2ccccc12 [Chem. 50, c[c[Cys-ACP-His-D-Phe-His-Trp-Cys]- ACP-His-D-Phe-His-Trp]] (cyclo([Api]H[dF]HWC[Api]H[dF]HWC); disulfide 6-12) | 56 |  | 
N=C(N)NCCC[C@@H]1NC(=O)[C@@H](Cc2ccccc2)NC(=O)[C@H](Cc2c[nH]cn2)NC(=O)[C@H](CCC(=O)O)NC(=O)[C@@H]2CSSC[C@H](NC(=O)[C@H](Cc3c[nH]c4ccccc34)NC1=O)C(=O)N[C@@H](CCC(=O)O)C(=O)N[C@@H](Cc1c[nH]cn1)C(=O)N[C@H](Cc1ccccc1)C(=O)N[C@@H](CCCNC(=N)N)C(=O)N[C@@H](Cc1c[nH]c3ccccc13)C(=O)N2 [Chem. 51, c[c[Cys-Glu-His-D-Phe-Arg-Trp-Cys]- Glu-His-D-Phe-Arg-Trp]] (cyclo(CEH[dF]RWCEH[dF]RW); disulfide 1-7) | 13 | 0.2 nM | 
NCCCC[C@@H]1NC(=O)[C@@H]2CSSC[C@H](NC(=O)[C@H](Cc3c[nH]c4ccccc34)NC(=O)[C@H](CCCNC(N)=O)NC(=O)[C@@H](Cc3ccccc3)NC(=O)[C@H](Cc3c[nH]cn3)NC1=O)C(=O)N[C@@H](CCCCN)C(=O)N[C@@H](Cc1c[nH]cn1)C(=O)N[C@H](Cc1ccccc1)C(=O)N[C@@H](CCCNC(N)=O)C(=O)N[C@@H](Cc1c[nH]c3ccccc13)C(=O)N2 [Chem. 55, c[c[Cys-Lys-His-D-Phe-Cit-Trp-Cys]- Lys-His-D-Phe-Cit-Trp]] (cyclo(CKH[dF][Cit]WCKH[dF][Cit]W); disulfide 1-7) | 41 | 0.1 nM | 
N=C(N)NCCC[C@@H]1NC(=O)[C@H](Cc2c[nH]c3ccccc23)NC(=O)[C@H](CCCNC(=N)N)NC(=O)[C@@H](Cc2ccccc2)NC(=O)[C@H](Cc2c[nH]cn2)NC(=O)[C@@H]2CSSC[C@H](NC1=O)C(=O)N[C@@H](Cc1c[nH]cn1)C(=O)N[C@H](Cc1ccccc1)C(=O)N[C@@H](CCCNC(=N)N)C(=O)N[C@@H](Cc1c[nH]c3ccccc13)C(=O)N[C@@H](CCCNC(=N)N)C(=O)N2 [Chem. 68, c[c[Cys-His-D-Phe-Arg-Trp-Arg-Cys]- His-D-Phe-Arg-Trp-Arg]] (cyclo(CH[dF]RWRCH[dF]RWR); disulfide 1-7) | 1 |  | 
